Experimental data published in US20050170485A1, “Culture having phenol oxidase-like activity” (priority 2002, published 2005).

What was measured:
Format in all cases: biochemical
[1] = system: laccase from Japanese lacquer; assay: Direct oxidation reaction by laccase (comparison); details: reaction pH 7.0; 2-chloro 1,4-phenylenediamine = 100
Protocol: Next, 20 μl of the above-mentioned culture solution was added to the resulting mixture. A change in absorbance at 490 nm, 450 nm or 405 nm was determined for the resulting product, depending on the substrate. Here, 1 U (unit) of the activity regarding the direct oxidative reaction was defined as an amount for increasing the absorbance by 1 per one minute.
(§1) In addition, for the comparison, the substrate specificities at pH 7.0 for laccase from Japanese lacquer and bilirubin oxidase from the strain belonging to the genus Myrothecium were also examined in the same manner.

[2] = system: culture of Flammulina velutipes strain IFO 30601; assay: Direct oxidation reaction by the culture; details: for activity of the culture compared with bilirubin oxidase from the genus Myrothecium, direct oxidation / activity of the culture compared with laccase from Japanese lacquer, direct oxidation: pH 7.0, relative activities of Table 7; for Relative Activity, Culture (direct oxidation): reaction pH 7.0, 2-chloro 1,4-phenylenediamine = 100; for activity of the culture for the substrate in words, direct oxidation reaction: pH 7.0
Protocol: Further, the direct oxidation reaction of the culture obtained in the above-mentioned example was determined by using color development due to oxidative polymerization of a substrate generated by the direct action of the culture of the present invention on the substrate as an index.
As the substrates, there were used diaminophenolic compounds (2-chloro 1,4-phenylenediamine, p-phenylenediamine, 2,5-diaminotoluene, N-phenyl-p-phenylenediamine, toluylene-3,4-diamine, m-phenylenediamine), aminophenolic compounds (o-aminophenol, m-aminophenol, 5-amino-o-cresol, p-aminophenol, p-methylaminophenol), and phenolic compounds (2,6-dimethoxyphenol, catechol, resorcinol, hydroquinone, pyrogallol, gallic acid, propyl gallate, 1-naphthol, […], 2,3,4-trihydroxybenzophenone, 2,3,4,4-tetrahydroxybenzophenone). As to a substrate hardly soluble in water, there was used one obtained by dissolving the substrate in a small amount of dimethyl sulfoxide and diluting the resulting solution with deionized distilled water to a desired concentration. In Table 6, %” indicates volume/volume %.
(§2) Concretely, 180 μl of 0.89 mM sodium phosphate buffer (pH 7.0) containing […] substrate was pre-incubated in wells of a 96-well microplate [manufactured by Corning, Costor (registered trademark) 3368] at 25° C. for 1 minute. Next, 20 μl of the above-mentioned culture solution was added to the resulting mixture. A change in absorbance at 490 nm, 450 nm or 405 nm was determined for the resulting product, depending on the substrate. Here, 1 U (unit) of the activity regarding the direct oxidative reaction was defined as an amount for increasing the absorbance by 1 per one minute.

[3] = biological target: T1, bilirubin oxidase from the strain belonging to the genus Myrothecium (Albifimbria verrucaria, UniProt Q12737); assay: Direct oxidation reaction by bilirubin oxidase (comparison); design: concentration or dose not given beside the values; details: reaction pH 7.0; 2-chloro 1,4-phenylenediamine = 100
T1 sequence (Q12737 39-572): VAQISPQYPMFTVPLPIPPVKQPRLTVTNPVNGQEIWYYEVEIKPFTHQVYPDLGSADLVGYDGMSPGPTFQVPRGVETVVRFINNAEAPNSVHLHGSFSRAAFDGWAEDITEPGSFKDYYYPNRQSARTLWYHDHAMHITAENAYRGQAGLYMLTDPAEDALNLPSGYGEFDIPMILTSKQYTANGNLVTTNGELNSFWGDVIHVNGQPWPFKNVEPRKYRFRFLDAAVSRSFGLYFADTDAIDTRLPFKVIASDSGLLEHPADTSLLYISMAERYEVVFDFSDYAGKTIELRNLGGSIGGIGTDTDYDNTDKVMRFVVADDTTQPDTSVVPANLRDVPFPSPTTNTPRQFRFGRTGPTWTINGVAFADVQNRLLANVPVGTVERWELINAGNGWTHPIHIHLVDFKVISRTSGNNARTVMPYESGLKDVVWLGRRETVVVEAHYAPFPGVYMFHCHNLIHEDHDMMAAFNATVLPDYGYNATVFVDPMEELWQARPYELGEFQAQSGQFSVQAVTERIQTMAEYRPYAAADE
Protocol: as §2, §1
The relative activity (%) for each substrate is shown in Table 7, in which the measured value for a case where a representative chemical dye 2-chloro 1,4-phenylenediamine was used as a substrate is 100.

[4] = system: culture of Flammulina velutipes strain IFO 30601; assay: Oxidative coupling reaction with 4-aminoantipyrine by the culture; details: for Specific Activity, Culture (oxidative coupling with 4-aminoantipyrine): reaction pH 7.0, 25° C., substrate 2.0 mM; for activity of the culture for the substrate in words, oxidative coupling reaction: pH 7.0
Protocol: Next, the oxidative coupling reaction of the culture obtained in (2) in Example 1 mentioned above was determined by using color development as an index by the oxidative condensation of the substrate (hydrogen donor) with 4-aminoantipyrine, catalyzed by the culture of the present invention.
As the hydrogen donors, there were used phenolic compounds (phenol, 2-methoxyphenol, 2,6-dimethoxyphenol, catechol, resorcinol, hydroquinone, pyrogallol, gallic acid, propyl gallate, 1-naphthol, catechin), aminophenolic compounds (o-aminophenol, m-aminophenol, p-aminophenol), diaminophenolic compounds (o-phenylenediamine, m-phenylenediamine, p-phenylenediamine), and heterocyclic compounds (5-hydroxyindole, 2,6-diaminopyridine).
The above-mentioned culture solution was added to a reaction system containing 4-aminoantipyrine and an optional hydrogen donor. Thereafter, the activity of the culture of the present invention was assayed by determining a change in absorbance at 490 nm for the phenolic compound, the diaminophenolic compound and the heterocyclic compound, or determining a change in absorbance at 450 nm for the aminophenolic compound. As to a substrate hardly soluble in water, there was used one obtained by dissolving the substrate in a small amount of dimethyl sulfoxide and diluting the resulting solution with deionized water to a desired concentration. In Table 4, DMSO is an abbreviation for dimethyl sulfoxide.
(§3) Concretely, 190 μl of 105.3 mM phosphate buffer (pH 7.0) containing 0.4 μmol of a substrate and 4.0 μmol of 4-aminoantipyrine was pre-incubated in wells of a 96-well microplate [manufactured by Corning, Costor (registered trademark) 3368] at 25° C. for 1 minute. Next, 10 μl of the above-mentioned culture solution was added to the resulting mixture, and thereafter, the mixture was incubated for 1 hour. A change in absorbance at 490 nm or 450 nm was determined for the resulting product. One unit (U) of the activity regarding the oxidative coupling reaction was defined as an amount for increasing the absorbance by 1 per one minute.

[5] = biological target: T2, bilirubin oxidase from the strain of the genus Myrothecium (Albifimbria verrucaria, UniProt Q12737); assay: Oxidative coupling reaction with 4-aminoantipyrine by bilirubin oxidase (comparison); details: reaction pH 8.0, substrate 2.0 mM
T2 sequence (Q12737 39-572): T1 sequence (Q12737 39-572)
Protocol: as §3
In addition, for the comparison, the examination was made in the same manner for bilirubin oxidase from the strain of the genus Myrothecium except that the above-mentioned buffer was replaced with 105.3 mM Tris-HCl buffer (pH 8.0).

| Compound | Relative Activity, Laccase from Japanese Lacquer (direct oxidation) [1] [%] | activity of the culture compared with bilirubin oxidase from the genus Myrothecium, direct oxidation [2] | Relative Activity, Culture (direct oxidation) [2] [%] | Relative Activity, Bilirubin Oxidase from Strain Belonging to Genus Myrothecium (direct oxidation) [3] [%] | activity of the culture compared with laccase from Japanese lacquer, direct oxidation [2] | Specific Activity, Culture (oxidative coupling with 4-aminoantipyrine) [4] [U/mg Protein] | Specific Activity, Bilirubin Oxidase from Strain Belonging to Genus Myrothecium (oxidative coupling with 4-aminoantipyrine) [5] [U/mg Protein] | activity of the culture for the substrate in words, direct oxidation reaction [2] | activity of the culture for the substrate in words, direct oxidation reaction ([2]; listed as 2,3,4,4-tetrahydrobenzophenone) | activity of the culture for the substrate in words, oxidative coupling reaction [4] |
| --- | --- | --- | --- | --- | --- | --- | --- | --- | --- | --- |
| Cc1cc(N)ccc1N [2,5-Diaminotoluene] | 44 | higher activity | 80 | 24 | – | – | – | – | – | – |
| Cc1ccc(N)cc1O [5-Amino-o-cresol] | 1 | even higher activity | 117 | 19 | even higher activity | – | – | – | – | – |
| Nc1cccc(N)c1 [m-Phenylenediamine] | 4 | – | 26 | 14 | even higher activity | 29.7 | 1.7 | – | – | – |
| Nc1ccc(Nc2ccccc2)cc1 [N-Phenyl-p-phenylenediamine] | 94 | – | 174 | 102 | – | – | – | especially high activity | – | – |
| O=C(c1ccc(O)cc1)c1ccc(O)c(O)c1O [2,3,4,4-Tetrahydroxybenzophenone] | 179 | even higher activity | 571 | 52 | higher activity | – | – | high activity | especially high activity | – |
| Nc1ccccc1N [o-Phenylenediamine] | – | – | – | – | – | 15.1 | 4.5 | – | – | – |
| CCCOC(=O)c1cc(O)c(O)c(O)c1 [Propyl Gallate] | 14 | higher activity | 34 | 85 | higher activity | −0.2 | −0.1 | – | – | – |
| O=C(c1ccccc1)c1ccc(O)c(O)c1O [2,3,4-Trihydroxybenzophenone] | 175 | even higher activity | 537 | 62 | higher activity | – | – | especially high activity | – | – |
| Cc1ccc(N)c(N)c1 [Toluylene-3,4-diamine] | 61 | higher activity | 120 | 45 | – | – | – | – | – | – |
| CNc1ccc(O)cc1 [p-Methylaminophenol] | 308 | higher activity | 304 | 122 | – | – | – | especially high activity | – | – |
| Nc1cccc(N)n1 [2,6-Diaminopyridine] | – | – | – | – | – | 37.7 | 2.3 | – | – | high activity |
| Oc1ccccc1 [Phenol] | – | – | – | – | – | 8.1 | 0.9 | – | – | – |
| Oc1ccc2[nH]ccc2c1 [5-Hydroxyindole] | – | – | – | – | – | 4.7 | 1.9 | – | – | – |
| Catechin | – | – | – | – | – | 14.0 | 4.6 | – | – | especially high activity |
| Nc1ccc(N)c(Cl)c1 [2-Chloro 1,4-phenylenediamine] | 100 | – | 100 | 100 | – | – | – | – | – | – |
| C1=CCC2=CC=CCC2=C1 [1,5-Dihydronaphthalene] | 47 | – | 63 | 69 | – | – | – | – | – | – |
